Source: the NIST ThermoML archive (doi:10.1016/j.jct.2019.07.008)
± gives the expanded uncertainty stated by the source.

Settings: Liquid, Ebulliometric method (Recirculating still)

| Structure (SMILES) | vapor or sublimation pressure (355.2 K) | vapor or sublimation pressure (372.8 K) |
| --- | --- | --- |
| CC(C)(C)O [2-methylpropan-2-ol] | 100 ± 2 kPa |  |
| O [water] |  | 100 ± 2 kPa |
